Measured values from US20250319115A1, “Compositions and Methods for Modulating Cytokines” (Flagship Pioneering Innovations VII, LLC, priority 2022, published 2025).

What was measured:
[1] = system: CD3/CD28 (TransAct) activated PBMCs; experiment: PBMC cytokine release by Cytometric BeadArray, Inhibition format (peptide with anti-CD3/CD28 T-cell activator); format: cell-based, human; parameters: key to Inhibition by Analyte: IL-1b / Inhibition by Analyte: IL-2 / Inhibition by Analyte: TNF / Inhibition by Analyte: IP-10 / Inhibition by Analyte: IL-10: X = a hit with significant activation or inhibition of relevant cytokine release; conditions: peptide applied with anti-CD3/CD28 T-cell activator, 24 hours, supernatant CBA
Method: Peripheral Blood Mononuclear Cells were seeded+/−the T-cell activator […] and +/−peptides for 24-48 hours. Cytokines were measured from the supernatant after incubation by CBA Cytometer.
Thawing PBMCs: PBMCs were thawed by pre-warming TexMACS media (Miltenyi Biotech) in 20 ml aliquots-1-50 ml conical per donor. After the media was warmed to 37° C., cells were removed from liquid nitrogen and brought to the tissue culture hood. For each donor, 1 ml of media from the warmed aliquot was added to the frozen vial and mixed up and down. The media plus thawed cells were then added back to the 50 ml conical. This was repeated until all the cells were thawed and added to the 50 ml tube. Continue with other donors if used. Spin cells for 5 min at 400×g. Supernatant was aspirated and cells resuspended at ˜10*10^6 cells/ml (see vial for cell number).
PBMC Plating: Frozen PBMCs from normal, healthy, human volunteers (StemCell Technologies) were thawed and plated at 250,000 cells/well. After PBMCs were thawed and resuspended at […], cells were then counted (Countess III, Thermo Scientific) and adjusted based on counts to […]. Take the number of PBMCs determined by number of wells for the experiment, for example, 10 wells would need 2.5*10^6 cells total or 0.250 ml. The cells needed for the experiment are then transferred to another conical tube. Warmed TexMACS media is added so that the final concentration is 250,000 cells/190 ul media, for example, 10 wells would need 1.9 ml (190 ul×10 wells) of media total minus 0.250 ml of cells (1.9 ml-0.250 ml) or 1.65 ml of media added to the 0.250 ml of cells. Add 190 ul of cells plus media to the 96 well U-bottom plate. Place in incubator until dilutions are made and ready.
Peptide Dilutions: Ideally, all peptides should be at a starting concentration of at least 10 mM, especially for those in DMSO (ATCC) to reach a final concentration of 1 uM (H2O) or 0.5 uM (DMSO). Dilutions of all test articles should be made at 20× the final concentration, for example, a final concentration of 1 uM peptide would need to be made at 20 uM.
Reagent Dilution: Dilutions are made in TexMACS media, enough for 10 ul/well in triplicate (30 ul of a 20×). Activator—CD3/CD28 (TransAct; Miltenyi Biotech) or cytokine will be at 21× and added after the 45-minute incubation with peptides. Be sure to include relevant controls—Positive: TransAct+Cells, Negative: Vehicle+Cells. Dilutions should also be made in a ultra-low binding plate (Corning).
Assay Procedure: Peptide Treatment: Start assay by thawing the cells and plating in a 96 well, U-bottom tissue culture plate (Corning) as described above. Cell plates are placed in a tissue culture incubator (5% CO2, 37° C.). While cells are in the incubator, start making dilutions (optimally 1 hr or less) as described above. Cell plates are removed from the incubator and 10 ul of the 20× dilutions are added to the relevant wells. After the addition of inhibitors, cell plates are placed in the tissue culture incubator for 45 minutes. The plates are removed from the incubator and 10 ul of 21× TransAct is added to the relevant wells*. Plates are then returned to the incubator and incubated for 24 hours. After 24 hours, plates are spun for 5 minutes at 400×g.
* Activation: This assay can be run in two different formats—Activation and Inhibition. The procedure is the same except no TransAct is needed in the peptide wells for Activation. TransAct is only needed in the control wells. The purpose of this procedure is to determine the possible response from peptides alone.
Cytometric BeadArray (CBA): After the spin, supernatants (˜150 ul) are transferred to a new, ultra-low binding U-bottom plate. Supernatants are then frozen at −20° C. until thawed for CBA (BD) to determine levels of human IL-2, TNFα, IL-1b, IP-10, IL-10, and IFNg. CBA was run according to the manufacturers protocol.

[2] = system: primary human CD8+ T cells; experiment: T cell activation markers in isolated CD8+ T cells +/- CD3/CD28 (ELISA, CD69 flow cytometry); format: cell-based
Method: To determine the effect of the Target Protein on T cell activity, the Target Protein, irrelevant proteins, a single amino acid mutant Target Protein and controls were applied to primary human T cells isolated from Peripheral Blood Mononuclear Cells (PBMCs)+/−CD3/CD28. 24 hours later the levels of extra-cellular CD69, IL-2, and TNFalpha (72 hours for IFN-gamma) were evaluated.
Isolation of PBMCfrom Leukopak: The isolation of peripheral blood mononuclear cells (PBMC) from a leukopak sample was conducted using the EasySep™ Direct Human PBMC Isolation Kit (Cat #19654, StemCell Technologies, Vancouver, BC, Canada) following the manufacturer's instructions. A leukopak sample was prepared within a volume range of 125 mL and added to a T-75 cm2 cell culture flask. EDTA was added to the sample to achieve a final concentration of 6 mM. The Isolation Cocktail provided in the kit was added to the sample without vortexing, and the sample was mixed and incubated at room temperature (RT) for 5 minutes. EasySep buffer was added to double the original sample volume, followed by the addition of vortexed RapidSpheres™. The flask was placed into a magnet and incubated at RT for 5 minutes. The cell suspension was carefully pipetted into a new T-75 cm2 flask, and RapidSpheres™ were added to the enriched cells. The flask was placed back into the magnet for a second separation at RT for 5 minutes. Finally, the cell suspension was carefully pipetted into a new tube or centrifuge bottle, and the isolated PBMCs were ready for use.
Isolation of primary human T-cells: Following the isolation of PBMCs, CD8^+ T cells were isolated using the EasySep™ Human CD8^+ T Cell Isolation Kit (Cat #17953, StemCell Technologies, Vancouver, BC, Canada) according to the manufacturer's instructions. The PBMC sample was prepared at a concentration of […] within a volume range of 2 mL and added to a 5 mL polystyrene round-bottom tube. The Isolation Cocktail provided in the kit (50 μL/mL of sample) was added to the sample without vortexing, mixed, and incubated at RT for 5 minutes. RapidSpheres™ were vortexed for 30 seconds to ensure even dispersion and then added to the sample at a concentration of 50 μL/mL of sample. The EasySep buffer was added to top up the sample to a total volume of 2.5 mL, and the sample was mixed by gently pipetting up and down 2-3 times. The tube (without lid) was placed into the magnet and incubated at RT for 3 minutes. After incubation, the magnet was picked up, and in one continuous motion, the magnet and tube were inverted, pouring the enriched cell suspension into a new tube. The isolated CD8^+ T cells were now ready for use.
Peptide treatment: Isolated CD8^+ T cells were plated in a 96-well format plate at a density of 1×10^5 cells per well. […]

[3] = system: IL-4 signaling pathway; experiment: HEK-Blue IL-4 SEAP reporter assay; format: cell-based
Method: The effects of putative inhibitors on pro-inflammatory cytokine pathways are assessed using HEK-Blue cells engineered for the detection of bioactive cytokines via activation of JAK/STAT pathways and subsequent expression of the SEAP reporter gene. Cells are treated with their relevant cytokines+/−peptides or control antibodies, and 20 hours after treatment activation of the relevant cytokine receptor is determined via SEAP expression through mixing cell supernatants with a Quanti-Blue colorimetric reagent and measuring optical density at 600 nm.
Reporter lines HEK-Blue TL-4/TL-15/IFN-alpha were cultured in DMEM with GlutaMAX and 10% HI FBS (Gibco). Cells were seeded into black 96-well optical clear flat-bottomed PhenoPlates at densities of 25000 cells/well and 100 uL/well and allowed to rest overnight in a 37 C incubator with 5% CO2. After 24 hours, cells were treated with 10 μL of their relevant cytokines (StemCell Technologies) at the previously determined EC75 for activation (1.164 ng/mL for HEK-Blue IL-4, 2.26 ng/mL for HEK-Blue IL-15, and 0.456 ng/mL for HEK-Blue IFN-alpha), with or without 10 μL of peptides (5 uM final concentration) or control antibodies (1 ug/well). Cells were kept overnight in a 37 C incubator with 5% C02.
20-22 hours after treatment, 20 μL of the cell supernatants were collected and transferred to 96-well white flat opaque-bottom plates (Costar) and each sample was mixed with 180 μL of Quanti-Blue reagent. Colorimetric reactions were allowed to develop in a 37 C incubator with 5% C02 for a certain duration of time (3 hours for HEK-Blue IL-4, 2 hours for HEK-Blue IL-15, and 1 hour for IFN-alpha). Assay plates were then removed from the incubator and the optical density of each well was measured at 600 nm on a GloMax plate reader. Relative activation of the cytokine signaling pathway in question was determined by ratioing the optical density of each sample to the average optical density for the cytokine-only treated cells from the same plate.

[4] = CD8+ T cells, 10 μM, CD3/CD28, 24 hours, ELISA

Substance | Inhibition by Analyte: IL-1b [1] | Inhibition by Analyte: IL-2 [1] | Inhibition by Analyte: IP-10 [1] | Inhibition by Analyte: TNF [1] | T cell activation markers in CD8+ T cells (TNFα, IL-2, CD69) ([2]; 10 μM vs scrambled protein, with CD3/CD28 antibody cocktail, 24 hours) | T-cell activation marker IL-2 [2, 4] | T-cell activation marker TNFalpha [2, 4] | T-cell activation marker CD69 ([2]; CD8+ T cells, 10 μM, CD3/CD28, 24 hours, flow cytometry) | inhibitor of the IL-4 signaling pathway (grade in words) ([3]; FIG. 9) | Relative activity (compared to cytokine only controls), Cytokine IL-4 ([3]; peptide 5 uM, cytokine at EC75, SEAP OD 600 nm)
SEQ ID NO: 4524: novel, secreted peptide that enhances T cell activation (LDFIRAFLLLLVASVPGKIGSQNLTAQRPPVATSFLQMESSEPTVRK; listed as Homo sapiens) | X | X | X | X | increases | significantly up-regulates | significantly up-regulates | significantly up-regulates |  | 
SEQ ID NO: 4227: novel peptide capable of inhibiting pro-inflammatory cytokine pathways (LAVFVIIRNLSDYLSFFFPFLLELLAVEEHHAYL; listed as Homo sapiens) |  |  |  |  |  |  |  |  | moderate | −50%
